Assay results: patent US9375004B2 (Bayer Intellectual Property GmbH, priority 2010, dated 2016)
Values joined by “and” are separate entries in the source; they are usually repeats but may differ in a detail not shown here. Equal values may be shown once. Read-outs that look alike come from different tables or passages of the source.

What was measured:
Pyrenophora teres = test: Pyrenophora teres-test (barley)/preventive; format: in vivo; conditions: 500 ppm, preventive, evaluated 8 days after inoculation
Botrytis cinerea = test: Botrytis test (beans)/preventive; conditions: 100 ppm, preventive, lesion size 2 days after inoculation
Protocol: Botrytis Test (Beans)/Preventive
(§1) Solvent: 24.5 parts by weight of acetone • 24.5 parts by weight of N,N-dimethylformamide
(§2) Emulsifier: 1 part by weight of alkylaryl polyglycol ether
After the spray coating has dried on, 2 small pieces of agar covered with growth of Botrytis cinerea are placed on each leaf. The inoculated plants are placed in a darkened chamber at 20° C. and a relative atmospheric humidity of 100%.
2 days after the inoculation, the size of the lesions on the leaves is evaluated.

Sphaerotheca fuliginea = test: Sphaerotheca test (cucumber)/preventive; format: in vivo; conditions: 500 ppm, preventive, evaluated 7 days after inoculation
Phakopsora pachyrhizi = test: Phakopsora test (soybeans)/protective; format: in vivo; conditions: 250 ppm, protective, evaluated 11 days after inoculation
Alternaria solani = test: Alternaria test (tomato)/preventive; format: in vivo; conditions: 500 ppm, preventive, evaluated 7 days after inoculation
[1] = system: Fusarium nivale (var. majus); test: Fusarium nivale (var. majus)-test (wheat)/preventive; conditions: preventive, evaluated 5 days after inoculation
Protocol: Fusarium Nivale (Var. Majus)-Test (Wheat)/Preventive
Solvent: 49 parts by weight of N,N-dimethylacetamide
as §2
After the spray coating has been dried, the plants are slightly injured by using a sandblast and afterwards they are sprayed with a conidia suspension of Fusarium nivale (var. majus).
The plants are placed in the greenhouse under a translucent incubation cabinet at a temperature of approximately 10° C. and a relative atmospheric humidity of approximately 100%.
The test is evaluated 5 days after the inoculation.

Uromyces appendiculatus = conditions: 100 ppm, beans, preventive, evaluated 10 days after inoculation
Puccinia triticina = test: Puccinia triticina-test (wheat)/preventive; format: in vivo; conditions: 500 ppm, preventive, evaluated 8 days after inoculation
Septoria tritici = test: Septoria tritici-test (wheat)/preventive; format: in vivo; conditions: 500 ppm, preventive, evaluated 21 days after inoculation
Venturia inaequalis = test: Venturia test (apples)/preventive; conditions: 100 ppm, preventive, evaluated 10 days after inoculation
Protocol: Venturia Test (Apples)/Preventive
as §1, §2
After the spray coating has dried on, the plants are inoculated with an aqueous conidia suspension of the causal agent of apple scab (Venturia inaequalis) and then remain for 1 day in an incubation cabinet at approximately 20° C. and a relative atmospheric humidity of 100%.
The plants are then placed in a greenhouse at approximately 21° C. and a relative atmospheric humidity of approximately 90%.
The test is evaluated 10 days after the inoculation.

[2] = logP by HPLC on reversed-phase column (EEC Directive 79/831 Annex V.A8); conditions: HPLC on reversed-phase column (C 18), EEC Directive 79/831 Annex V.A8
Rhizoctonia solani = test: Rhizoctonia test (rice)/protective; format: in vivo; conditions: 250 ppm, protective, evaluated 4 days after inoculation
Protocol: Rhizoctonia Test (Rice)/Protective
Solvent: 28.5 parts by weight of acetone
Emulsifier: 1.5 part by weight of alkylaryl polyglycol ether
1 day after the treatment, the plants are inoculated with hyphae of Rhizoctonia solani.
Evaluation is carried out 4 days after the inoculation.

Pyricularia oryzae = format: in vivo
Cochliobolus miyabeanus = test: Cochliobolus test (rice)/protective; format: in vivo; conditions: 250 ppm, protective, evaluated 4 days after inoculation

Row | SMILES | Efficacy (Pyrenophora teres) [%] | Efficacy (Botrytis cinerea) [%] | Efficacy (Sphaerotheca fuliginea) [%] | Efficacy (Phakopsora pachyrhizi) [%] | Efficacy (Alternaria solani) [%] | Efficacy ([1]; 500 ppm) [%] | Efficacy (Uromyces appendiculatus) [%] | Efficacy (Puccinia triticina) [%] | Efficacy (Septoria tritici) [%] | Efficacy (Venturia inaequalis) [%] | logP [2] | Efficacy (Rhizoctonia solani) [%] | Efficacy (Pyricularia oryzae; in vivo) | Efficacy (Cochliobolus miyabeanus) [%] | further results
1 | CC1CC(C)(C)c2cccc(NC(=O)c3c(C(F)F)nn(C)c3F)c21 (racemic) [Example 64] | 100 | 95 | 100 | 97 | 95 | 75 | 100 | 100 | 100 | 99 |  |  |  |  | 
2 | Cn1nc(C(F)F)c(C(=O)Nc2ccccc2C2CC2C2CC2)c1Cl (single isomer, unassigned) [Example 47] | 100 |  |  | 98 |  |  | 100 | 100 |  | 100 | 3.76 | 100 | 90% |  | Efficacy ([1]; 500 ppm, listed as 47 from this invention): 86%
3 | Cn1nc(C(F)F)c(C(=O)Nc2ccccc2C2CC2C2CC2)c1Cl (single isomer, unassigned) [Example 48] | 86 |  |  | 99 |  |  | 100 | 100 |  | 100 | 3.85 | 98 |  |  | Efficacy ([1]; 500 ppm, listed as 48 from this invention): 86%
4 | Cn1nc(C(F)F)c(C(=O)Nc2ccccc2CCC(C)(C)C)c1F [Example 13] | 100 | 94 | 100 | 98 | 100 | 100 | 100 | 100 | 100 | 100 | 3.83 | 100 | 97% | 85 | 
5 | Cn1nc(C(F)F)c(C(=O)Nc2ccccc2CCC(C)(C)C)c1Cl [Example 14] | 100 | 99 |  | 98 |  | 100 | 100 | 100 | 93 | 100 |  | 100 |  | 90 | chromatographic logP (physchem; logP (acidic), HPLC, 0.1% aqueous formic acid/acetonitrile): 4.01; chromatographic logP (physchem; logP, HPLC on reversed-phase column (C 18), EEC Directive 79/831 Annex V.A8): 4.1; Efficacy (Pyricularia oryzae; 250 ppm, rice, protective, evaluated 5 days after inoculation): 98%
6 | CC(CC(C)(C)C)c1ccccc1NC(=O)c1c(C(F)F)nn(C)c1F (stereo not drawn) [Example 21] | 95 | 100 | 95 | 98 | 95 |  | 100 | 100 | 100 | 100 | 4.04 | 100 | 85% | 85 | 
7 | Cn1nc(C(F)F)c(C(=O)Nc2ccccc2C2CC2C2CC2)c1F (stereo not drawn) [Example 46] | 100 | 99 | 94 | 85 | 100 |  | 100 | 100 | 89 | 100 | 3.67 | 97 | 96% |  | 
8 | CC(C)C1C2CCC1c1c(NC(=O)c3c(C(F)F)nn(C)c3F)cccc12 (stereo not drawn) [Example 66] | 100 | 99 | 100 | 98 | 100 | 86 | 100 | 100 | 100 | 100 | 4.41 | 100 | 100% | 93 | Efficacy ([1]; 250 ppm): 93%
9 | Cn1nc(C(F)F)c(C(=O)Nc2ccc(F)cc2-c2ccc(Cl)c(Cl)c2)c1F [Example 116] | 100 | 100 | 98 | 85 | 100 |  | 100 | 100 | 100 | 100 | 3.89 | 97 | 97% and 90% | 90 | protection (Pyricularia oryzae; in vivo): at least 90%
10 | Cn1nc(C(F)F)c(C(=O)Nc2ccccc2-c2ccc(C(F)(F)F)c(F)c2)c1Cl [Example 148] | 100 | 100 |  | 98 |  | 86 | 100 | 100 | 100 | 100 | 3.77 | 100 | 80% | 95 | 
